Assay results as given in patent EP1311486B1, “USES OF THALIPORPHINE OR ITS DERIVATIVES IN TREATMENT OF CARDIAC DISEASES AND PREPARATION OF SAME” (Lotus Pharmaceutical Co., Ltd., priority 2000, dated 2002).

Assays:
[1] = tested on: rats subjected to 4 hours coronary ligation; assay: Area at risk and infarct size after 4 hours coronary ligation (triphenyl tetrazolium chloride-Evan's blue staining); type: in vivo, rat; details: L-NAME 1x10^-3 g/kg
Description: Infarct size was determined by the triphenyl tetrazolium chloride-Evan's blue staining technique. The rat was sacrificed after its left descending coronary artery had been occluded for 4 hours. The weight of infarct tissue was expressed as a percentage of total ventricular weight or occluded zone. The difference in infarct size was statistically analyzed using unpaired Student's t-test. Table 4 Area at risk and infarct size in vehicle and THP-treated rats subjected to 4 hours coronary ligation
The difference in ischemic area and infarct size shown by staining technique after 4 hours of ischemia is evaluated. […] In the vehicle group, the necrotic area expresses either as a percentage of the area at risk (45.2±1.0%) or as a percentage of the total ventricle (19.8±2.2%), indicating the amount of cardiac tissue at risk becomes necrotic. Administration of THP reduces myocardial necrosis extension in a dose dependent manner. This reduction is observed either in the necrotic area/area at risk (38.1±5.0%, 29.0±2.5% and 10.7±1.8%/with 3.5x10^-7, 10^-6, 10^-5 g/kg of THP, respectively) or in the necrotic area/total ventricle (17.9+2.3%, 13.4±1.2% and 5.0±0.9% with 3.5x10^-7, 10^-6, 10^-5 g/kg of THP, respectively).

AV node conduction = assay: His bundle electrogram of isolated heart, Langendorff perfusion, atrial pacing at 300 ms cycle length; parameters: species or system rats and guinea pigs; details: for atrial effective refractory period (AERP): before drug THP 60 ms, quinidine 40 ms; for ventricular effective refractory period (VERP): before drug THP 160 ms, quinidine 180 ms; for AV node effective refractory period (AVNERP): before drug THP 170 ms, quinidine 130 ms; for wenckbach cycle length (WCL): before drug THP 200 ms, quinidine 150 ms
Description: The investigation conforms to the Guide for the Care and Use of Laboratory Animals published by the US National Institutes of Health (NIH publication No. 85-23, revised 1996). Adult rats and guinea pigs were killed after hepariniation and anesthetization with urethane (1.25 g/kg i.p.). After isolating the heart, the aorta was perfused with 10µM quinidine and THP, respectively, by Langendorff perfusion. A pair of bipolar electrodes connected with silver wire were placed on the tip of the Triangle of Koch to record the His bundle electrogram. In addition, another pair of bipolar electrodes connected with silver wire were placed on the surface of the right ventricle to record T wave. […] The QT interval, conduction time through the sinoatrial (SA interval), the atrioventricular node (AH interval) and His-purkinje system (HV interval) were recorded, respectively, using electrocardiograph. Similarly, the recovery curve of His-purkinje system (i.e. the relationship of H2V2 and V1H2), atrial and ventricular refractory period and AV node refractory period were also recorded in the same manner. 1 and 2.
The SA, AH, HV intervals and T wave are prolonged in the quinidine-treated heart (FIG. 1). […] In addition, 3, 10 and 30µM THP can prolong the atrial effective refractory period (AERP) from 60 ms to 90, 100 and 120 ms, respectively; the ventricular effective refractory period (VERP) from 160 ms to 160, 170 and 190 ms, respectively; and the AV node effective refractory period (AVNERP) from 170 ms to 170, 200 and 240 ms, respectively. When compared with THP in the same manner, 3,10 and 30µM quinidine can prolong the AERP from 40 ms to 60, 80 and 130 ms; the VERP from 180 ms to 170, 180 and 190 ms; and the AVNERP from 130 ms to 150, 200 and 245 ms, respectively. Further, 3, 10 and 30µM THP can change the wenckbach cycle length (WCL) from 200 ms to 210, 230 and 280 ms, respectively; whereas 3, 10 and 30µM quinidine can change the WCL from 150 ms to 170, 210 and 300 ms, respectively. Both THP and quinidine prolong AERP, VERP and AVNERP, however, only quinidine inhibits conduction in AV node (prolonged AH interval). In contrast, even when the THP concentration raised to 10µM, the conduction in AV node is not inhibited.

[2] = tested on: guinea pig right ventricular strips; assay: Ouabain-induced arrhythmia in electrically driven right ventricular strips; details: 10-20µM after 0.6-0.8µM ouabain
Description: The arrhythmia was then induced 5-10 minutes after. 10-20µM THP or its derivatives were administered to reverse the ouabain-induced arrhythmia. 6-7.
Referring to FIGs. […] The arrhythmia is then induced 5-10 minutes after.

SMILES	Area at risk (% of ventricle) [1]	Necrotic (% of Area at risk) [1]	Necrotic (% of ventricle) [1]	atrial effective refractory period (AERP) (AV node conduction; 3µM) [ms]	ventricular effective refractory period (VERP) (AV node conduction; 3µM) [ms]	AV node effective refractory period (AVNERP) (AV node conduction; 3µM) [ms]	wenckbach cycle length (WCL) (AV node conduction; 3µM) [ms]	AH interval (conduction in AV node) (AV node conduction; 10µM, isolated perfused heart)	HV interval (AV node conduction; 10µM, isolated perfused heart)	SA interval (AV node conduction; 10µM, isolated perfused heart)	T wave (AV node conduction; 10µM, isolated perfused heart)	atrial effective refractory period (AERP) (AV node conduction; 10µM) [ms]	ventricular effective refractory period (VERP) (AV node conduction; 10µM) [ms]	AV node effective refractory period (AVNERP) (AV node conduction; 10µM) [ms]	wenckbach cycle length (WCL) (AV node conduction; 10µM) [ms]	atrial effective refractory period (AERP) (AV node conduction; 30µM) [ms]	ventricular effective refractory period (VERP) (AV node conduction; 30µM) [ms]	AV node effective refractory period (AVNERP) (AV node conduction; 30µM) [ms]	wenckbach cycle length (WCL) (AV node conduction; 30µM) [ms]	reversal of ouabain-induced arrhythmia [2]
COC(=O)[C@@H](N)CCCNC(=N)N[N+](=O)[O-] [L-NAME, N^∞-nitro-L-arginine methyl ester, reference compound]	47.5±0.2 % of ventricle	45.1±7.2 % of Area at risk	21.4±3.5 % of ventricle	–	–	–	–	–	–	–	–	–	–	–	–	–	–	–	–	–
C=C[C@H]1C[N@@]2CC[C@H]1C[C@@H]2[C@@H](O)c1ccnc2ccc(OC)cc12 [quinidine]	–	–	–	60	170	150	170	prolonged	prolonged	prolonged	prolonged	80	180	200	210	130	190	245	300	does not reveal the efficacy
